The subject of one assay is diabetic NOD pregnancies. In words: NOD diabetic pregnancies and folinic acid supplementation. The class given is in vivo, mouse. The method, then:
All animal experiments were performed with prior approval from the Pennington Biomedical Research Center IACUC, and were conducted in accordance with the “Guide for the care and use of laboratory animals” of the United States National Institutes of Health. Animals were housed with a 12-hour light/dark cycle, with access to food and water ad libitum. Mice of the Non-Obese Diabetic strain (NOD/ShiLtJ, The Jackson Laboratory, Bar Harbor, Me.; sometimes referred to as “NOD” mice), as well as male mice of strain FVB were kept on Purina™ 5001 diet (calories provided by: Protein, 28.5%; Fat, 13.5%; Carbohydrate, 58%. LabDiet, Purina Mills Inc., Gray Summit, Mo.). Females of strain FVB were kept on Purina 5015 diet (calories provided by: Protein, 19.8%; Fat, 25.3%; Carbohydrate, 54.8%). Blood glucose levels were monitored weekly in NOD mice. Once blood glucose exceeded 250 mg/dl, females were considered diabetic, and were then used for mating and production of embryos. Diabetic as well as normoglycemic NOD female mice were mated to normoglycemic NOD male mice; once NOD males became hyperglycemic, they were retired from the experiment and were no longer used. Supplementation with folinic acid (12.5 mg/kg body weight, once per week by intraperitoneal injection) was initiated at the age of 10 weeks in 56 NOD females. […]

In assay [1] the test system is STZ-induced diabetic mouse pregnancies. As to conditions: cited from earlier work.

Consider `Nc1nc(=O)c2c([nH]1)NCC(CNc1ccc(C(=O)N[C@@H](CCC(=O)O)C(=O)O)cc1)N2C=O` (mixture of isomers) [folinic acid], for which, in the assay with diabetic NOD pregnancies (NOD strain, folinic acid supplementation), the “NTD incidence (in words)” value was “reduced”. Besides, in the assay with diabetic NOD pregnancies (diabetic NOD pregnancies, gestation day 10.5, 12.5 mg/kg once per week i.p., 17 NTDs in 81 embryos, unsupplemented 40.2%, Fisher's Exact Test p=0.006), the “incidence of neural tube defects in embryos” value came to 21%.

As to `Nc1nc2ncc(CNc3ccc(C(=O)N[C@@H](CCC(=O)O)C(=O)O)cc3)nc2c(=O)[nH]1` [folic acid], the “effect on NTDs (in words)” value in assay [1] is recorded as “beneficial effects”.

The record behind these values is US20180299431A1, “Explant Assay to Determine the Potential for Compositions to Promote or to Inhibit Neural Tube Defects” (Board of Supervisors of Louisiana State University and …, priority 2015, published 2018).
